Reference: PubChem BioAssay (NCI)
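Assay format: 96-well plates, 48-hour exposure. TGI: total growth inhibition.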

What was measured:
Assay in all cases: inhibition of tumour cell growth, NCI panel, 48 h
[1] = tested on: 786-0 renal
[2] = tested on: A498 renal
[3] = tested on: A549 NSCLC
[4] = tested on: ACHN renal
[5] = tested on: CAKI-1 renal
[6] = tested on: CCRF-CEM leukemia
[7] = tested on: COLO 205 colon
[8] = tested on: DMS 114 small cell lung
[9] = tested on: DMS 273 small cell lung
[10] = tested on: EKVX NSCLC
[11] = tested on: HCC-2998 colon
[12] = tested on: HCT-116 colon
[13] = tested on: HCT-15 colon
[14] = tested on: HL-60(TB) leukemia
[15] = tested on: HOP-18 NSCLC
[16] = tested on: HOP-92 NSCLC
[17] = tested on: HT29 colon
[18] = tested on: IGROV1 ovarian
[19] = tested on: K-562 leukemia
[20] = tested on: KM12 colon
[21] = tested on: KM20L2 colon
[22] = tested on: LOX IMVI melanoma
[23] = tested on: LXFL 529 NSCLC
[24] = tested on: M14 melanoma
[25] = tested on: MALME-3M melanoma
[26] = tested on: MOLT-4 leukemia
[27] = tested on: NCI-H226 lung
[28] = tested on: NCI-H23 lung
[29] = tested on: NCI-H460 lung
[30] = tested on: NCI-H522 lung
[31] = tested on: OVCAR-4 ovarian
[32] = tested on: OVCAR-5 ovarian
[33] = tested on: OVCAR-8 ovarian
[34] = tested on: RPMI-8226 leukemia
[35] = tested on: RXF 393 renal
[36] = tested on: RXF-631 renal
[37] = tested on: SF-268 CNS
[38] = tested on: SF-295 CNS
[39] = tested on: SK-MEL-2 melanoma
[40] = tested on: SK-MEL-28 melanoma
[41] = tested on: SK-MEL-5 melanoma
[42] = tested on: SK-OV-3 ovarian
[43] = tested on: SN12C renal
[44] = tested on: SNB-19 CNS
[45] = tested on: SNB-75 CNS
[46] = tested on: SNB-78 CNS
[47] = tested on: SR leukemia
[48] = tested on: SW-620 colon
[49] = tested on: TK-10 renal
[50] = tested on: U251 CNS
[51] = tested on: UACC-257 melanoma
[52] = tested on: UACC-62 melanoma
[53] = tested on: UO-31 renal
[54] = tested on: XF 498 CNS
[55] = tested on: DLD-1 colon
[56] = tested on: HOP-62 NSCLC
[57] = tested on: M19-MEL melanoma
[58] = tested on: OVCAR-3 ovarian
[59] = tested on: SF-539 CNS

Measured: TGI

COC(=O)C(C(=O)C(=O)Nc1c(C)cccc1C)c1cnc2ccccc2n1 (stereo not given)
not listed: [55] | [56] | [57] | [58] | [59]
> 100 µM: all other assays above

CC(C)(O)[C@@H]1CC[C@@]2(C)CCCC(O)C2(O)C1 (stereo not given in full)
not listed: [10] | [35] | [46]
> 100 µM: all other assays above
